Measured values published in PMC8230956, “Inhibition of the Human Hsc70 System by Small Ligands as a Potential Anticancer Approach” (Cancers, 2021).
Read-outs that look alike come from different tables or passages of the source.

What was measured:
[1] = system: non-transformed cell lines; set-up: method as in PMID 19027770, PMID 17981006, PMID 18171263; conditions: cited from earlier work
Hsc70 + DnaJB1 + Apg2 = target: T1, Hsc70 + DnaJB1 + Apg2 (Homo sapiens, UniProt P11142+P34932); test: Reactivation of G6PDH aggregates by the ternary chaperone mixture; assay type: biochemical
T1 construct: His6-SUMO (N, cleaved yes); made in house; host or cells: E. coli BL21 Rosetta
T1 sequence (P11142 whole entry): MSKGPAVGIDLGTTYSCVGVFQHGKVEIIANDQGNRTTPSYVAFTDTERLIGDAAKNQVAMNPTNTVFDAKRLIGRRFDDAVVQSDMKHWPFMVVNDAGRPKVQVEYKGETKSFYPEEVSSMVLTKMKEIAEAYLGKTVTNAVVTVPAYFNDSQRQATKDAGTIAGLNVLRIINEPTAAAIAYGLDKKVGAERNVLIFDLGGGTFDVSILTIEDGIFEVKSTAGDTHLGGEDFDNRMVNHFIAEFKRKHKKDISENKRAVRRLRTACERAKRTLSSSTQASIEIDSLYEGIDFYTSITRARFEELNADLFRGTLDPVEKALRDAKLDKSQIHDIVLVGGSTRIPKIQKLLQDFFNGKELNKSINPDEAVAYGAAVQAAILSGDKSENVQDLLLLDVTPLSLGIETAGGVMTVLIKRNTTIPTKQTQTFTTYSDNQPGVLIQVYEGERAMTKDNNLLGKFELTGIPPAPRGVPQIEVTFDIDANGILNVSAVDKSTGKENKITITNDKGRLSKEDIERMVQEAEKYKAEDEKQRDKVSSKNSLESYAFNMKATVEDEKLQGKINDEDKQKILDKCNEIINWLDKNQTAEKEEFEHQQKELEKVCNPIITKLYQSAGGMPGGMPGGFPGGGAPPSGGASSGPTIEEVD
T1 sequence (P34932 whole entry): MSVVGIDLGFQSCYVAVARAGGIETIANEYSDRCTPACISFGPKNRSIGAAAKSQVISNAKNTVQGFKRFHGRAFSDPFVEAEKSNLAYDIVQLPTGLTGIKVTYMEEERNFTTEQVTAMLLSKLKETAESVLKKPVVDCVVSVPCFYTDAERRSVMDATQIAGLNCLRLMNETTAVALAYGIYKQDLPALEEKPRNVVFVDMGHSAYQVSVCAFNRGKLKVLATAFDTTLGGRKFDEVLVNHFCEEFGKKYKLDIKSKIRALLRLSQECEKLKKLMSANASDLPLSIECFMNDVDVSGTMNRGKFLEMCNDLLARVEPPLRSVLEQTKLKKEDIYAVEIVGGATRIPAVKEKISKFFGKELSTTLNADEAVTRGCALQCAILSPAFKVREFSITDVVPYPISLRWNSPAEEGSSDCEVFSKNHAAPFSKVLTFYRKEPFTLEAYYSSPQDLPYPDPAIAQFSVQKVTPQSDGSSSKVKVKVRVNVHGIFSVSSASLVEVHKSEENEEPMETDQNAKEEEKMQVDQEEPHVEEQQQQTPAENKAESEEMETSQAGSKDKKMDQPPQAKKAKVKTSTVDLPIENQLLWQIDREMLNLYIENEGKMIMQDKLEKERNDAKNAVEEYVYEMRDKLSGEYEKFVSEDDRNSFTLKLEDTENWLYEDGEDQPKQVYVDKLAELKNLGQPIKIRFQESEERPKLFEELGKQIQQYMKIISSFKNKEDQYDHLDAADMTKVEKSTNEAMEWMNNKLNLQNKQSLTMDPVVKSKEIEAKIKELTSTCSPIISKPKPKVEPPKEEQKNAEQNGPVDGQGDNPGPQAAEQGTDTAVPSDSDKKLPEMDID
Experimental: (§1) Subsequently, aggregates were stabilized for 30 min at 30 °C. The properties of these aggregates have been previously reported, and typically show a hydrodynamic radius of approximately 500–600 nm. Aggregates (0.4 µM final concentration) were added to samples containing 2 µM Hsc70 and 0.5 µM DnaJB1 in the absence or presence of 0.4 µM Apg2. […] A preincubation of the samples with compounds for 30 min at 30 °C was done prior to starting the reaction. The reaction was started with the addition of 2 mM ATP and the ATP-regeneration system (3 mM PEP and 20 ng/mL PK). Final sample volume was 100 µL. Reactivation was monitored at 30 °C for 180 min. At different times of the reaction, 5 µL of sample were added to 250 µL buffer containing 50 mM Tris-HCl pH 7.5, 50 mM KCl, 20 mM MgCl2, 10 mM DTT, 1 mM NADP^+, 2.5 mM G6P (Sigma-Aldrich). NADPH formation was measured recording the absorbance increase at 340 nm in a Synergy HTX plate reader (BioTek, Winooski, VT, USA) in transparent 96-well plates with flat bottom (Sarstedt, Newton, NC, USA) for 5 min. Reactivation percentages were calculated considering the slope of NADPH formation for native G6PDH as 100% activity. […] IC50 values were estimated with a sigmoidal dose-response ligand-binding equation.

MeWo cells = test: Cell viability assay (XTT or Presto Blue), MeWo; assay type: cell-based, human; conditions: increasing concentrations, different incubation times
Text: (§2) Cells grew in Dulbecco’s Modified Eagle Medium (DMEM) high glucose (Sigma-Aldrich) supplemented with heat-inactivated 10% fetal bovine serum (FBS) (HyClone™, GE Healthcare, IL, USA). […] Primary human melanocytes (human epidermal melanocytes, neonatal, light pigmented, HEMn-LP) were purchased from Invitrogen (Waltham, MA, USA, C-002-5C).
(§3) Two colorimetric assays were used to study the cytotoxic effects of the selected compounds: the XTT Cell Proliferation Kit II (Roche) and Presto Blue™ Cell Viability Reagent (Invitrogen). Exponentially growing cell lines seeded at 20,000 cells/well in 96-well flat bottom plates (Sarstedt) were incubated overnight in 150 µL of the corresponding growth medium. The following day, the medium was replaced by fresh medium (150 µL) containing 1% FBS (except for melanocytes) and 0.9% DMSO in the presence or absence of different concentrations of compounds. A2058 and MeWo cells were treated with increasing compound concentrations for cell viability assays. […] Cell viability in plates treated with XTT was determined by reading the absorbance at 490 nm in a Synergy HTX plate reader (BioTek). […] In both cases, the absorbance of the medium was subtracted from cell-containing wells. Control values (without compounds but with 0.9% DMSO) were taken as 100% viability.

Hsc70 + DnaJB1 = target: T2, Hsc70 + DnaJB1 (Homo sapiens, UniProt P11142); test: Reactivation of G6PDH aggregates by the binary chaperone mixture; assay type: biochemical; conditions: 2 µM Hsc70, 0.5 µM DnaJB1, 0.4 µM G6PDH aggregates; means ± SD of three experiments
T2 construct: His6-SUMO (N, cleaved yes); made in house; host or cells: E. coli BL21 Rosetta
T2 sequence (P11142 whole entry): as the sequence (P11142 whole entry) above
Experimental: as §1

A2058 cells = test: Cell viability assay (XTT or Presto Blue), A2058; assay type: cell-based, human; conditions: for Effect on cell viability (toxicity), A2058: increasing concentrations, different incubation times
Text: as §2, §3

[2] = system: melanocytes (HEMn-LP non-malignant skin cells); test: Cell viability assay (XTT or Presto Blue), primary melanocytes; assay type: cell-based, human; conditions: 20 µM, up to 12 h
Text: as §2, §3

fibroblasts (MRC-5) = test: Cell viability assay (XTT or Presto Blue), fibroblasts; assay type: cell-based, human; conditions: 20 µM, up to 12 h
Text: as §2, §3

[3] = 2 µM Hsc70, 0.5 µM DnaJB1, 0.4 µM Apg2, 0.4 µM G6PDH aggregates, means ± SD of three experiments, read-out: IC50 G6PDH Reactivation Hsc70 + DnaJB1 + Apg2

SMILES	Toxicity in non-transformed cell lines [1]	IC50 (Hsc70 + DnaJB1 + Apg2; [3]) [µM]	Effect on cell viability (toxicity), MeWo (MeWo cells)	IC50 (Hsc70 + DnaJB1) [µM]	Effect on cell viability (toxicity), A2058 (A2058 cells)	IC50 (Hsc70 + DnaJB1 + Apg2) [µM]	Toxicity in melanocytes [2]	Toxicity in fibroblasts (fibroblasts (MRC-5))	Fold lower toxic concentration in melanoma cell lines than IC50 for the isolated chaperone system (A2058 cells; melanoma cell lines (A2058 and MeWo) versus IC50 of the isolated chaperone system)
[H]/N=C(\N/C(=N/[H])NCCCCCCNC(=N)NC(=N)Nc1ccc(Cl)cc1)Nc1ccc(Cl)cc1 [Compound 1, (1E)-2-[6-[[amino-[(E)-[amino-(4-chloroanilino)methylidene]amino]methylidene]amino]hexyl]-1-[amino-(4-chloroanilino)methylidene]guanidine]	toxicity in several non-transformed cell lines	14.5 ± 1.8	Cell viability decreased	11.9 ± 0.2	Cell viability decreased				
CCc1oc2ccccc2c1C(=O)c1cc(Br)c(O)c(Br)c1 [Compound 3, (3,5-dibromo-4-hydroxyphenyl)-(2-ethyl-1-benzofuran-3-yl)methanone]			no toxicity was observed	10.1 ± 0.4	no toxicity was observed	17.6 ± 0.1			
CC=C(C)C(=O)OC1C(OC(C)=O)C2(CO)C(O)CC3(C)C(=CCC4C5(C)CCC(OC6OC(C(=O)O)C(OC7OC(CO)C(O)C(O)C7O)C(O)C6OC6OC(CO)C(O)C(O)C6O)C(C)(CO)C5CCC43C)C2CC1(C)C (centres unmarked) [Compound 4]		47 ± 5.6		37.3 ± 1.8					
Cl.O[C@@H](c1cc(C(F)(F)F)nc2c(C(F)(F)F)cccc12)[C@H]1CCCCN1 [Compound 5, (S)-[2,8-bis(trifluoromethyl)quinolin-4-yl]-[(2R)-piperidin-2-yl]methanol hydrochloride]		97.3 ± 21.1	Cell viability decreased	107 ± 7.5	Cell viability decreased		no toxicity was observed	no toxicity was observed	around 7 fold
O=C(O)Cc1cc(I)c(Oc2ccc(O)c(I)c2)c(I)c1 [Compound 6, 2-[4-(4-hydroxy-3-iodophenoxy)-3,5-diiodophenyl]acetic acid]			no toxicity was observed		no toxicity was observed				
